Drawing on ChEMBL document CHEMBL3763041, “Design and synthesis of new imidazo[1,2-a]pyridine and imidazo[1,2-a]pyrazine derivatives with antiproliferative activity against melanoma cells” (Eur J Med Chem, 2016), this text covers IC50 for 77 compounds.

The assay is described as follows: Antiproliferative activity against human A375P cells expressing BRAF V600E mutant after 72 hrs by CellTiter-Glo assay. The format is functional, cell-based. On the technique in general: Cellular ATP, detected with luciferase, serves as a proxy for viable cell number.

As for `O=C(Nc1cccc(-c2cnc3c(NC(=O)c4ccccc4)nccn23)c1)Nc1ccc(F)cc1F`, the 50% inhibitory concentration (IC50) (as a rule, the concentration that gives 50% inhibition) came to 1990 nM. In turn, `O=C(Nc1cccc(-c2cnc3c(NC(=O)c4cccc(C(F)(F)F)c4)nccn23)c1)Nc1ccc(Cl)c(C(F)(F)F)c1` registered an IC50 of 560 nM. Under `O=C(Nc1cccc(-c2cnc3c(NC(=O)c4ccccc4)cccn23)c1)c1ccc(F)c(C(F)(F)F)c1` stands more than 30000 nM. Under `Cc1ccc(C)c(C(=O)Nc2cccc(-c3cnc4c(NC(=O)c5ccccc5)cccn34)c2)c1` stands more than 30000 nM.

With `Cc1ccc(C(=O)Nc2nccn3c(-c4cccc(NC(=O)c5ccc(Cl)c(C(F)(F)F)c5)c4)cnc23)cc1Cl`, half-maximal inhibition (IC50) was put at 2790 nM.

`O=C(Nc1cccc(-c2cnc3c(NC(=O)c4ccccc4)nccn23)c1)c1ccc(Cl)c(C(F)(F)F)c1` gave a concentration for half-maximal inhibition (IC50) of 1820 nM. Compound `O=C(Nc1cccc(-c2cnc3c(NC(=O)c4ccc(Br)cc4)nccn23)c1)Nc1ccc(F)cc1F` had an IC50 of 3750 nM. Under `O=C(Nc1cccc(-c2cnc3c(NC(=O)c4cccc(OC(F)(F)F)c4)nccn23)c1)c1ccc(Cl)c(C(F)(F)F)c1` stands 1030 nM; under `O=C(Nc1cccc(-c2cnc3c(NC(=O)c4ccc(F)c(C(F)(F)F)c4)nccn23)c1)c1ccc(Cl)c(C(F)(F)F)c1`, 460 nM. Under `Cc1cc(C)cc(C(=O)Nc2nccn3c(-c4cccc(NC(=O)c5ccc(F)c(Cl)c5)c4)cnc23)c1` stands 1640 nM. The same measure for `O=C(Nc1cccc(-c2cnc3c(NC(=O)c4cc(F)cc(F)c4)nccn23)c1)c1ccc(Cl)c(C(F)(F)F)c1`: 1620 nM; for `Nc1nccn2c(-c3cccc(NC(=O)Nc4ccc(Br)cc4)c3)cnc12`: 4640 nM; for `Nc1nccn2c(-c3cccc(NC(=O)Nc4cc(C(F)(F)F)cc(C(F)(F)F)c4)c3)cnc12`: 9060 nM.

Regarding `O=C(Nc1cccc(-c2cnc3c(NC(=O)c4ccc(C(F)(F)F)cc4)nccn23)c1)Nc1ccc(F)cc1F`, the half-maximal inhibitory concentration (IC50) was determined as 2730 nM.

Turning to `O=C(Nc1cccc(-c2cnc3c(NC(=O)c4ccccc4)cccn23)c1)c1ccc(Br)cc1`, the IC50 is 6350 nM. The same measure for `Nc1nccn2c(-c3cccc(NC(=O)Nc4cccc(Cl)c4)c3)cnc12`: 5010 nM; for `Cc1ccc(NC(=O)Nc2cccc(-c3cnc4c(N)nccn34)c2)cc1`: 2700 nM. The same measure for `O=C(Nc1cccc(-c2cnc3c(NC(=O)c4ccc(Cl)c(Cl)c4)nccn23)c1)c1ccc(Cl)c(C(F)(F)F)c1`: 660 nM. For `O=C(Nc1cccc(-c2cnc3c(NC(=O)c4ccc(Cl)c(C(F)(F)F)c4)nccn23)c1)c1ccc(F)c(Cl)c1`, the IC50 came to 1080 nM. The same measure for `O=C(Nc1cccc(-c2cnc3c(NC(=O)c4cc(F)cc(F)c4)nccn23)c1)Nc1ccc(F)cc1F`: 5820 nM; for `O=C(Nc1cccc(-c2cnc3c(NC(=O)c4cc(Cl)c(F)c(Cl)c4)nccn23)c1)c1ccc(Cl)c(C(F)(F)F)c1`: more than 30000 nM. Under `O=C(Nc1cccc(-c2cnc3c(NC(=O)c4cccc(OC(F)(F)F)c4)nccn23)c1)c1ccc(F)c(Cl)c1` stands 1500 nM; under `O=C(Nc1cccc(-c2cnc3c(NC(=O)c4cc(C(F)(F)F)cc(C(F)(F)F)c4)nccn23)c1)c1ccc(F)c(Cl)c1`, 1160 nM; under `Nc1nccn2c(-c3cccc(NC(=O)c4ccccc4)c3)cnc12`, 850 nM. `O=C(Nc1cccc(-c2cnc3c(NC(=O)c4cccc(C(F)(F)F)c4)nccn23)c1)c1ccc(F)c(Cl)c1` displayed a concentration for half-maximal inhibition (IC50) of 1080 nM. Under `O=C(Nc1cccc(-c2cnc3c(NC(=O)c4ccc(C(F)(F)F)cc4)nccn23)c1)Nc1ccc(Cl)c(C(F)(F)F)c1` stands 1750 nM; under `O=C(Nc1cccc(-c2cnc3c(NC(=O)c4cccc(C(F)(F)F)c4)nccn23)c1)Nc1ccc(F)cc1F`, 440 nM; under `Nc1nccn2c(-c3cccc(NC(=O)c4ccc(OC(F)(F)F)cc4)c3)cnc12`, 430 nM. As to `Nc1nccn2c(-c3cccc(NC(=O)c4ccc(F)cc4F)c3)cnc12`, inhibition was half-maximal at 7260 nM (IC50). `O=C(Nc1cccc(-c2cnc3c(NC(=O)c4cc(Cl)c(F)c(Cl)c4)nccn23)c1)Nc1ccc(F)cc1F` showed an IC50 of 390 nM. Compound `O=C(Nc1cccc(-c2cnc3c(NC(=O)c4ccccc4)cccn23)c1)c1cccc(OC(F)(F)F)c1` registered a 50% inhibitory concentration (IC50) of more than 30000 nM. Under `Cc1cc(C)cc(C(=O)Nc2cccc(-c3cnc4c(N)nccn34)c2)c1` stands 820 nM; under `Nc1nccn2c(-c3cccc(NC(=O)c4cccc(Cl)c4Cl)c3)cnc12`, 640 nM. The same measure for `O=C(Nc1cccc(-c2cnc3c(NC(=O)c4ccccc4)cccn23)c1)Nc1ccc(Cl)c(C(F)(F)F)c1`: 2320 nM.

As for `O=C(Nc1cccc(-c2cnc3c(NC(=O)c4cccc(Cl)c4Cl)nccn23)c1)Nc1ccc(F)cc1F`, the concentration for half-maximal inhibition (IC50) was determined as 170 nM. The same measure for `COc1ccc(NC(=O)Nc2cccc(-c3cnc4c(N)nccn34)c2)cc1`: 3000 nM. Compound `O=C(Nc1cccc(-c2cnc3c(NC(=O)c4cccc(Cl)c4Cl)nccn23)c1)c1ccc(F)c(Cl)c1` displayed an IC50 of 23300 nM. The same measure for `Cc1cc(C)cc(C(=O)Nc2cccc(-c3cnc4c(NC(=O)c5ccccc5)cccn34)c2)c1`: more than 30000 nM. Under `O=C(Nc1cccc(-c2cnc3c(NC(=O)c4cccc(C(F)(F)F)c4)nccn23)c1)c1ccc(Cl)c(C(F)(F)F)c1` stands 12700 nM; under `O=C(Nc1cccc(-c2cnc3c(NC(=O)c4ccccc4)cccn23)c1)c1ccc(C(F)(F)F)cc1`, 1700 nM; under `O=C(Nc1cccc(-c2cnc3c(NC(=O)c4ccccc4)cccn23)c1)c1ccc(F)c(Cl)c1`, 8040 nM. The same measure for `Nc1nccn2c(-c3cccc(NC(=O)Nc4cccc(C(F)(F)F)c4)c3)cnc12`: 5230 nM. Regarding `O=C(Nc1cccc(-c2cnc3c(NC(=O)c4ccc(C(F)(F)F)cc4)nccn23)c1)c1ccc(Cl)c(C(F)(F)F)c1`, the IC50 turned out to be 1600 nM. The same measure for `O=C(Nc1cccc(-c2cnc3c(NC(=O)c4ccccc4)cccn23)c1)c1cc(F)cc(F)c1`: 7940 nM. The same measure for `O=C(Nc1cccc(-c2cnc3c(NC(=O)c4ccccc4)cccn23)c1)Nc1cccc(Cl)c1Cl`: 15900 nM. Under `O=C(Nc1cccc(-c2cnc3c(NC(=O)c4ccccc4)cccn23)c1)Nc1ccc(Cl)c(Cl)c1` stands 4460 nM.

Consider `Cc1ccc(C(=O)Nc2cccc(-c3cnc4c(N)nccn34)c2)cc1Cl`, for which half-maximal inhibition (IC50) required 2270 nM. The same measure for `Nc1nccn2c(-c3cccc(NC(=O)Nc4ccc(C(F)(F)F)cc4)c3)cnc12`: 1100 nM. The same measure for `COc1cccc(C(=O)Nc2cccc(-c3cnc4c(N)nccn34)c2)c1C`: 10100 nM; for `Nc1nccn2c(-c3cccc(NC(=O)c4ccc(Cl)c(Cl)c4)c3)cnc12`: 1210 nM; for `Nc1nccn2c(-c3cccc(NC(=O)Nc4ccc(F)c(Cl)c4)c3)cnc12`: 4340 nM. Under `Cc1ccc(C)c(C(=O)Nc2cccc(-c3cnc4c(N)nccn34)c2)c1` stands 2730 nM; under `O=C(Nc1cccc(-c2cnc3c(NC(=O)c4ccccc4)cccn23)c1)c1ccc(Cl)c(C(F)(F)F)c1`, more than 30000 nM; under `O=C(Nc1cccc(-c2cnc3c(NC(=O)c4ccc(F)c(C(F)(F)F)c4)nccn23)c1)c1ccc(F)c(Cl)c1`, 1140 nM. With `COc1ccc(C(=O)Nc2cccc(-c3cnc4c(NC(=O)c5ccccc5)cccn34)c2)cc1OC`, the IC50 was 9470 nM. The same measure for `O=C(Nc1cccc(-c2cnc3c(NC(=O)c4ccc(Cl)c(C(F)(F)F)c4)nccn23)c1)c1ccc(Cl)c(C(F)(F)F)c1`: 2460 nM; for `COc1ccc(C(=O)Nc2cccc(-c3cnc4c(N)nccn34)c2)cc1OC`: 3840 nM. As for `O=C(Nc1cccc(-c2cnc3c(NC(=O)c4cc(Cl)c(F)c(Cl)c4)nccn23)c1)c1ccc(F)c(Cl)c1`, the midpoint of inhibition, the IC50, lay at 1290 nM. Consider `O=C(Nc1cccc(-c2cnc3c(NC(=O)c4ccccc4)cccn23)c1)c1cc(Cl)c(F)c(Cl)c1`, for which 7340 nM corresponded to half-maximal inhibition (IC50). The same measure for `Cc1cc(C)cc(C(=O)Nc2nccn3c(-c4cccc(NC(=O)Nc5ccc(F)cc5F)c4)cnc23)c1`: 120 nM; for `O=C(Nc1ccc(C(F)(F)F)cc1)Nc1cccc(-c2cnc3c(NC(=O)c4ccccc4)cccn23)c1`: 3010 nM.

For `Nc1nccn2c(-c3cccc(NC(=O)Nc4ccc(F)cc4F)c3)cnc12`, the 50% inhibitory concentration (IC50) was determined as 920 nM. The same measure for `Cc1ccc(C(=O)Nc2nccn3c(-c4cccc(NC(=O)Nc5ccc(Cl)c(C(F)(F)F)c5)c4)cnc23)cc1Cl`: 1160 nM; for `O=C(Nc1cccc(-c2cnc3c(NC(=O)c4ccccc4)cccn23)c1)Nc1cc(C(F)(F)F)cc(C(F)(F)F)c1`: 2080 nM. The same measure for `Nc1nccn2c(-c3cccc(NC(=O)Nc4ccc(Cl)c(C(F)(F)F)c4)c3)cnc12`: 11200 nM.

`Cc1ccc(C(=O)Nc2nccn3c(-c4cccc(NC(=O)c5ccc(F)c(Cl)c5)c4)cnc23)cc1Cl`: the 50% inhibitory concentration (IC50) was found to be 980 nM. Under `O=C(Nc1cccc(-c2cnc3c(NC(=O)c4cc(C(F)(F)F)cc(C(F)(F)F)c4)nccn23)c1)c1ccc(Cl)c(C(F)(F)F)c1` stands 550 nM; under `O=C(Nc1cccc(Cl)c1)Nc1cccc(-c2cnc3c(NC(=O)c4ccccc4)cccn23)c1`, 7360 nM. The same measure for `O=C(Nc1cccc(-c2cnc3c(NC(=O)c4ccc(Cl)c(C(F)(F)F)c4)nccn23)c1)Nc1ccc(F)cc1F`: 800 nM.

With `O=C(Nc1cccc(-c2cnc3c(NC(=O)c4ccc(F)c(Cl)c4)nccn23)c1)c1ccc(Cl)c(C(F)(F)F)c1`, the concentration for half-maximal inhibition (IC50) was 2860 nM. Regarding `O=C(Nc1cccc(-c2cnc3c(NC(=O)c4ccc(F)c(C(F)(F)F)c4)nccn23)c1)Nc1ccc(F)cc1F`, the IC50 is 410 nM. Under `O=C(Nc1cccc(-c2cnc3c(NC(=O)c4ccc(Cl)c(Cl)c4)nccn23)c1)c1ccc(F)c(Cl)c1` stands 900 nM; under `O=C(Nc1cccc(-c2cnc3c(NC(=O)c4ccccc4)nccn23)c1)Nc1ccc(Cl)c(C(F)(F)F)c1`, 1410 nM; under `O=C(Nc1cccn2c(-c3cccc(NC(=O)c4cccc(Cl)c4Cl)c3)cnc12)c1ccccc1`, more than 30000 nM.

The compound `O=C(Nc1cccc(-c2cnc3c(NC(=O)c4ccc(Br)cc4)nccn23)c1)c1ccc(F)c(Cl)c1` returned a 50% inhibitory concentration (IC50) of 490 nM.

Turning to `Nc1nccn2c(-c3cccc(NC(=O)Nc4ccccc4)c3)cnc12`, it took 1140 nM to reach half-maximal inhibition (IC50). In the case of `Cc1ccc(C(=O)Nc2cccc(-c3cnc4c(NC(=O)c5ccccc5)cccn34)c2)cc1Cl`, the IC50 is 7070 nM.
